Patent US20260007639A1, “COMPOUNDS FOR THE TREATMENT OF NEUROMUSCULAR DISORDERS” (NMD PHARMA A/S, priority 2017, published 2026)

Key:
[1] = test system: rat soleus muscles; test: Recovery of force in isolated rat soleus nerve-muscle preparations after 115 nM tubocurarine, 50 μM compound (Table 8); conditions: 40 mins exposure
Method: Force traces from a representative muscle stimulated to contract in 1) control condition before addition of neuromuscular blocking agent, 2) the force response to stimulation after 90 minutes incubation with Tubocurarine. […] The traces presented in FIG. 12A (1, 2, 3), correspond to the dotted lines in FIG. 12B, respectively.
Recovery of force is quantified as the percentage of the force prior to tubocurarine that is recovered by the compound.
The current invention relates to compounds that inhibit CIC-1 ion channels and increase muscle excitability and thereby improve muscle function in clinical conditions where muscle activation is failing. Such conditions result in loss of contractile function of skeletal muscle, weakness and excessive fatigue. In this series of experiments the compounds were tested for their ability to restore contractile function of isolated rat muscle when the neuromuscular transmission had been compromised akin to neuromuscular disorders.
Experimentally, soleus muscles from 4-5 wk old rats were isolated with the motor nerve remaining attached. The nerve-muscle preparations were mounted in experimental setups that enabled electrical stimulation of the motor nerve. Stimulation of the motor nerve led to activation of the muscle fibres and ensuing force production that was recorded.
After mounting the nerve-muscle preparation in the experimental setup, the contractile function of the muscle was initially assessed under the control conditions (FIG. 2A). […] The experimental condition mimics the failing neuromuscular transmission in a range of neuromuscular disorders. After addition of tubocurarine the contractile force declined over the next 90 mins to 10-50% of the control force. 50 μM of the test compound was then added and the contractile force recovered despite the continued presence of tubocurarine. To quantify the ability of the compound to restore force the percentage of the initial force that was restored was determined after 40 mins of compound exposure (FIG. 2B) and the point increase is reported in Table 8.

[2] = test system: female Lewis rats; test: In situ isometric hindlimb force in anaesthetised rats with neuromuscular transmission partially inhibited by Cisatracurium; assay type: in vivo, rat; conditions: 80 Hz stimulation, Cisatracurium infusion
Method: Isometric hindlimb force was measured in 12-week old female Lewis rats in the presence and absence of compound.
Rats were placed under anesthesia with isoflurane (2-4%), intubated and subsequently connected to a micro ventilator (Microvent 1, Hallowell EMC, US). Two stimulation electrodes were inserted through the skin to stimulate the sciatic nerve. A small incision was made proximal to the ankle, to expose the Achilles tendon, which was tied by cotton string, and connected to a force transducer (Fort250, World Precision Instruments) with adjustable position (Vernier control). The Achilles tendon was then cut distal to the attached cotton string. The rat was placed on a heated pad, and to prevent movement artefacts from contraction of the ankle dorsiflexors, the foot was fixated by tape on a footplate.
Muscle contractile properties were assessed by applying an electrical current (under supramaximal voltage conditions) to the nerve and recording the force generated by the muscle. The muscle was stretched until maximal force was obtained, when assessed by 2 Hz stimulation. Isometric force was measured every 30 seconds at 12 Hz (Twitch), 10 pulses, and at every 5 minutes at 80 Hz (Tetanic) for 1 second (80 pulses). This stimulation pattern was employed throughout the experiment, expect in few cases where 80 Hz stimulation was replaced by 12 Hz (10 pulses). […] When the level of neuromuscular inhibition was stable, the test article was injected i.v. at the chosen concentration. The effect of test article was assessed on its ability to increase force generated from the stimulation pattern applied. The effect was assessed in the ability to increase force per se (tetanic, 80 Hz, stimulation), and the ratio between individual twitch peaks (12 Hz stimulation). The effect was monitored for at least 1 hour after injection of test article. In addition, the time from injection of test article to maximal effect on force (both twitch and tetanic) was noted and the time for the effect to disappear (return to baseline), if possible. When appropriate the infusion of neuromuscular blocking agent was ceased, with the stimulation pattern continued, and the return of force to control levels was monitored. Animals were sacrificed by cervical dislocation while still fully sedated.

SMILES	Point increase (%) of initial force that was restored [1] [%]	average increase in tetanic force ([2]; 40.0 mg/kg i.v.) [%]	average increase in tetanic force ([2]; 24.6 mg/kg i.v.) [%]	average increase in tetanic force ([2]; 49.2 mg/kg i.v.) [%]	average increase in tetanic force ([2]; 44.8 mg/kg i.v.) [%]
C[C@H](Oc1ccc(Cl)cc1-c1ccno1)C(=O)O [Compound A-26, (2S)-2-[4-chloro-2-(1,2-oxazol-5-yl)phenoxy]propanoic acid]	20	33.4	–	–	–
O=C(O)[C@H](CF)Oc1ccc(Br)cc1-c1ccon1 [Compound A-31, (2R)-2-[4-bromo-2-(1,2-oxazol-3-yl)phenoxy]-3-fluoropropanoic acid]	36	34.1	–	–	–
C[C@H](Oc1cc(F)c(Br)cc1-c1ccon1)C(=O)O [Compound A-44, (2S)-2-[4-bromo-5-fluoro-2-(1,2-oxazol-3-yl)phenoxy]propanoic acid]	27	–	46.2	–	–
C[C@H](Oc1ccc(Br)cc1-c1csnn1)C(=O)O [Compound A-59, (2S)-2-[4-bromo-2-(1,2,3-thiadiazol-4-yl)phenoxy]propanoic acid]	20	–	–	42.8	–
O=C(O)COc1ccc(Br)cc1-c1ccon1 [Compound A-64, 2-[4-bromo-2-(1,2-oxazol-3-yl)phenoxy]acetic acid]	25	–	–	–	57.7
